# Experimental data taken from patent US9745325B2, “Fused heterocyclic compound” (Takeda Pharmaceutical Company Limited, priority 2014, dated 2017).
# Columns and labels:
# [1] = biological target: T1, CDK8/CycC (Homo sapiens, UniProt P49336); assay: CDK8 inhibitory activity (Kinase Tracer-236 / Eu-anti-GST fluorescence assay); type: binding; set-up: Percent inhibition of CDK8 activity (%): concentration or dose not given beside the values; details: for Percent inhibition of CDK8 activity (%): test compound concentration given as '1 1.1.1\4' [sic]
# T1 construct: purchased Carna Biosciences
# Method: (§1) The compound of the present invention was evaluated for its CDK8 inhibitory activity and CDK19 inhibitory activity by the following method. […] The primary diluted solution was dispensed in the amount of 2 μL/well to a 384-well plate, and then, a mixed solution of Eu^3+ Cryptate conjugated mouse monoclonal antibody anti-glutathione S-transferase (Cisbio) diluted 267-fold with an assay buffer and 60 nM Kinase Tracer-236 (Life technologies) was added thereto at 2 μL/well. […] After the addition, the plate was left standing at room temperature for 1 hour, and then, the fluorescence intensity (excitation wavelength 320 nm, fluorescence wavelength 615 nm, 665 nm, delay time 50 μsec) was measured using ann EnVision plate reader (PerkinElmer). The percent inhibition of CDK8 or CDK19 activity by the test compound can be calculated according to the following formula, wherein the fluorescence intensity of a reaction solution in the absence of compound is defined as the control, and the fluorescence intensity of a reaction solution in the presence of 10 μM of control compound is defined as the blank.
# [2] = biological target: T2, CDC2L6/CycC (CDK19) (Homo sapiens, UniProt Q9BWU1); assay: CDK19 inhibitory activity (Kinase Tracer-236 / Eu-anti-GST fluorescence assay); type: binding; set-up: Percent inhibition of CDK19 activity (%): concentration or dose not given beside the values; details: for Percent inhibition of CDK19 activity (%): test compound concentration given as '1 1.1.1\4' [sic]
# T2 construct: purchased Carna Biosciences Inc
# Method: as §1
# [3] = test system: human multiple myeloma RPMI8226 cells; assay: Inhibitory activity against human multiple myeloma RPMI8226 cell growth (CellTiter-Glo); type: cell-based; details: Homo sapiens, RPMI-8226, 192 h, 1 μM test compound, cultured for 8 days; read-out: Percent inhibition of RPMI8226 cell growth (%)
# Method: The compound of the present invention was evaluated for its inhibitory activity against human multiple myeloma RPMI8226 cell growth by the following method.
# A suspension of human multiple myeloma RPMI8226 cells (purchased from the Health Protection Agency) was inoculated at 40 μL (300 cells/well) to a 384-well plate and cultured at 37° C. for 1 day in a 5% CO2 incubator. After the culture, each test compound solution was added thereto at a test concentration of 1 μM using TECAN D300, and the cells were further cultured for 8 days. After the culture, CellTiter-Glo™ Luminescent Cell Viability Assay reagent (Promega) was added at 40 μL/well to a 384-well plate, and the amount of luminescence was measured using a luminometer. Inhibitory activity against human multiple myeloma RPMI8226 cell growth (percent inhibition (%)) of the test compound was calculated according to the following formula, which is based on the hypothesis that the amount of residual ATP reflects the number of cells. In this formula, 100% control represents the amount of luminescence from a well with only 0.1% DMSO added. Percent inhibition (%)=(1−(amount of luminescence of the test compound)÷(100% control))×100
# T1 sequence (P49336 whole entry): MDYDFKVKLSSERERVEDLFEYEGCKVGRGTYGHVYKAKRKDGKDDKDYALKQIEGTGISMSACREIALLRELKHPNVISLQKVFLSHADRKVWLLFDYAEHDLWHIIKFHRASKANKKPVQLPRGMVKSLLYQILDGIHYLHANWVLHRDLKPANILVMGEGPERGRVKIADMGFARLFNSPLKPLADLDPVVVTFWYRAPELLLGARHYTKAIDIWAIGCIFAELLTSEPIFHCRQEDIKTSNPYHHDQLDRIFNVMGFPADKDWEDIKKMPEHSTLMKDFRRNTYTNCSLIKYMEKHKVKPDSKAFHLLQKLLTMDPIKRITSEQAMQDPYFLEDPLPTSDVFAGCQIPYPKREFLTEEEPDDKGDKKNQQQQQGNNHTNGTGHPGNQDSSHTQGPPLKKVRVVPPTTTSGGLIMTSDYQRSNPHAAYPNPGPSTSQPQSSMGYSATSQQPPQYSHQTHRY
# T1 sequence (P24863 whole entry partner): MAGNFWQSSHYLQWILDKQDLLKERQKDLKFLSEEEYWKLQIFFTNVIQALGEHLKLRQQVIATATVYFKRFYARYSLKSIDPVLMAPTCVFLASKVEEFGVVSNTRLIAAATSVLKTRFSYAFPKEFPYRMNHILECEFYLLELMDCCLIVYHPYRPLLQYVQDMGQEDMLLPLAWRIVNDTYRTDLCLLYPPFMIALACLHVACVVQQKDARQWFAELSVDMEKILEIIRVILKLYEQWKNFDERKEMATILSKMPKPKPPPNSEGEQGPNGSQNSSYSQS
# T2 sequence (Q9BWU1 whole entry): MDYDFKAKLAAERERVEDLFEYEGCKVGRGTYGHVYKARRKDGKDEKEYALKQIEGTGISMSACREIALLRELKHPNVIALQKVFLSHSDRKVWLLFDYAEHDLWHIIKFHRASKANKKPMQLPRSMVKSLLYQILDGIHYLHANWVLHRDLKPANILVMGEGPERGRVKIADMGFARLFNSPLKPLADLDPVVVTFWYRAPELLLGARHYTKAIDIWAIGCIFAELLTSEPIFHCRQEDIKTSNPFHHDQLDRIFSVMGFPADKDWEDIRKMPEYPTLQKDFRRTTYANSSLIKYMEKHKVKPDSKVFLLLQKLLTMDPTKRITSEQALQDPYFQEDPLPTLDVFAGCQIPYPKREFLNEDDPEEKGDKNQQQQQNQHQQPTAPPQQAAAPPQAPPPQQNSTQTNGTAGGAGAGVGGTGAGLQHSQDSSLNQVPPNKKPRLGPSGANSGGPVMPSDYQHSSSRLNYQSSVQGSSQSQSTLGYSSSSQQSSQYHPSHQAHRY
# T2 sequence (P24863 whole entry partner): as the sequence (P24863 whole entry partner) above
SMILES,Percent inhibition of CDK8 activity (%) [1],Percent inhibition of CDK19 activity (%) [2],"IC50 ([1]; control compound, for reference, read-out: CDK8 inhibition IC50)","IC50 ([2]; control compound, for reference, read-out: CDK19 inhibition IC50)",inhibition at 1 µM [3]
"NC(=O)c1sc(Oc2ccc(Br)cc2)c2c1CCc1cnsc1-2 [Example 1, 8-(4-Bromophenoxy)-4,5-dihydrothieno[3,4-g][1,2]benzothiazole-6-carboxamide]",100%,103%,–,–,56%
"N#Cc1ccc(Oc2sc(C(N)=O)c3c2-c2sncc2CC3)cc1 [Example 2, 8-(4-Cyanophenoxy)-4,5-dihydrothieno[3,4-g][1,2] benzothiazole-6-carboxamide]",100%,100%,–,–,58%
"NC(=O)c1sc(Oc2ccc(C(=O)N3CCOCC3)cc2)c2c1CCc1cnsc1-2 [Example 3, 8-(4-(Morpholin-4-ylcarbonyl)phenoxy)-4,5-dihydrothieno[3,4-g][1,2]benzothiazole-6-carboxamide]",97%,99%,–,–,60%
"CN(C)C(=O)c1ccc(Oc2sc(C(N)=O)c3c2-c2sncc2CC3)cc1 [Example 4, 8-(4-(Dimethylcarbamoyl)phenoxy)-4,5-dihydrothieno[3,4-g][1,2] benzothiazole-6-carboxamide]",97%,98%,–,–,61%
"CCCS(=O)(=O)c1ccc(Oc2sc(C(N)=O)c3c2-c2sncc2CC3)cc1 [Example 5, 8-(4-(Propylsulfonyl)phenoxy)-4,5-dihydrothieno[3,4-g][1,2]benzothiazole-6-carboxamide]",99%,100%,–,–,63%
"CS(=O)(=O)c1cc(Oc2sc(C(N)=O)c3c2-c2sncc2CC3)ccc1C#N [Example 6, 8-(4-Cyano-3-(methylsulfonyl)phenoxy)-4,5-dihydrothieno[3,4-g][1,2]benzothiazole-6-carboxamide]",89%,84%,–,–,46%
"Cc1ncccc1Oc1sc(C(N)=O)c2c1-c1sncc1CC2 [Example 7, 8-((2-Methylpyridin-3-yl)oxy)-4,5-dihydrothieno[3,4-g][1,2]benzothiazole-6-carboxamide]",100%,101%,–,–,69%
"NC(=O)c1sc(Oc2ccc(Cl)nc2)c2c1CCc1cnsc1-2 [Example 10, 8-((6-Chloropyridin-3-yl)oxy)-4,5-dihydrothieno[3,4-g][1,2]benzothiazole-6-carboxamide]",96%,101%,–,–,60%
"N#Cc1ccc(Oc2sc(C(N)=O)c3c2-c2sncc2CC3)cn1 [Example 11, 8-((6-Cyanopyridin-3-yl)oxy)-4,5-dihydrothieno[3,4-g][1,2]benzothiazole-6-carboxamide]",96%,99%,–,–,71%
"NC(=O)c1sc(Oc2ccc(C(=O)O)nc2)c2c1CCc1cnsc1-2 [Example 12, 5-((6-Carbamoyl-4,5-dihydrothieno[3,4-g][1,2]benzothiazol-8-yl)oxy)pyridine-2-carboxylic acid]",100%,97%,–,–,65%
"N=C(N)c1ccc(Oc2sc(C(N)=O)c3c2-c2sncc2CC3)cn1 [Example 14, 8-((6-Carbamimidoylpyridin-3-yl)oxy)-4,5-dihydrothieno[3,4-g][1,2] benzothiazole-6-carboxamide]",92%,97%,–,–,65%
"CCOC(=O)c1ccc(Oc2sc(C(N)=O)c3c2-c2sncc2CC3)cn1 [Example 15, Ethyl 5-((6-carbamoyl-4,5-dihydrothieno[3,4-g][1,2]benzothiazol-8-yl)oxy)pyridine-2-carboxylate]",100%,102%,–,–,64%
"NC(=O)c1sc(Oc2ccc(Br)nc2)c2c1CCc1cnsc1-2 [Example 16, 8-((6-Bromopyridin-3-yl)oxy)-4,5-dihydrothieno[3,4-g][1,2]benzothiazole-6-carboxamide]",98%,99%,–,–,59%

# More lines, main results first:
Percent inhibition of CDK8 activity (%) [1],Percent inhibition of CDK19 activity (%) [2],"IC50 ([1]; control compound, for reference, read-out: CDK8 inhibition IC50)","IC50 ([2]; control compound, for reference, read-out: CDK19 inhibition IC50)",SMILES,inhibition at 1 µM [3]
102%,101%,–,–,"CNC(=O)c1ccc(Oc2sc(C(N)=O)c3c2-c2sncc2CC3)cn1 [Example 17, 8-((6-(Methylcarbamoyl)pyridin-3-yl)oxy)-4,5-dihydrothieno[3,4-g][1,2]benzothiazole-6-carboxamide]",66%
98%,93%,–,–,"NC(=O)c1sc(Oc2ccc(C(=O)N3CCOCC3)nc2)c2c1CCc1cnsc1-2 [Example 19, 8-((6-(Morpholin-4-ylcarbonyl)pyridin-3-yl)oxy)-4,5-dihydrothieno[3,4-g][1,2]benzothiazole-6-carboxamide]",53%
102%,99%,–,–,"CC1(C(=O)Nc2ccc(Oc3sc(C(N)=O)c4c3-c3sncc3CC4)cn2)COC1 [Example 20, 8-((6-(((3-Methyloxetan-3-yl)carbonyl)amino)pyridin-3-yl)oxy)-4,5-dihydrothieno[3,4-g][1,2]benzothiazole-6-carboxamide]",66%
106%,100%,–,–,"NC(=O)c1sc(Oc2ccc(NC(=O)C3(O)CC3)nc2)c2c1CCc1cnsc1-2 [Example 21, 8-((6-(((1-Hydroxycyclopropyl)carbonyl)amino)pyridin-3-yl)oxy)-4,5-dihydrothieno[3,4-g][1,2]benzothiazole-6-carboxamide]",70%
102%,104%,–,–,"CC(C)(O)C(=O)Nc1ccc(Oc2sc(C(N)=O)c3c2-c2sncc2CC3)cn1 [Example 22, 8-((6-((2-Hydroxy-2-methylpropanoyl)amino)pyridin-3-yl)oxy)-4,5-dihydrothieno[3,4-g][1,2]benzothiazole-6-carboxamide]",71%
104%,100%,–,–,"COCCNC(=O)c1ccc(Oc2sc(C(N)=O)c3c2-c2sncc2CC3)c(C)n1 [Example 25, 8-((6-((2-Methoxyethyl)carbamoyl)-2-methylpyridin-3-yl)oxy)-4,5-dihydrothieno[3,4-g][1,2] benzothiazole-6-carboxamide]",60%
103%,102%,–,–,"Cc1nc(N(C)C(=O)C2CC2)ccc1Oc1sc(C(N)=O)c2c1-c1sncc1CC2 [Example 26, 8-((6-((Cyclopropylcarbonyl)(methyl)amino)-2-methylpyridin-3-yl)oxy)-4,5-dihydrothieno[3,4-g][1,2]benzothiazole-6-carboxamide]",66%
–,–,0.12 µM,0.13 µM,"Oc1ccc(-c2n[nH]cc2-c2ccc3c(c2)OCCO3)c(O)c1 [control compound, 4-(4-(2,3-dihydro-1,4-benzodioxin-6-yl)-1H-pyrazol-3-yl)benzene-1,3-diol, reference compound]",–
